Structures can show the parent of a compound that is named as a salt.

Data set [1] can be described thus: In vitro release of leuprolide in PBS at pH 7.4 at 37° C. (HPLC). The format is physicochemical. The settings on record: for release of leuprolide completed: Example 5, FIG. 3, PLA 16,000 Dalton 60% in NMP, about 12% leuprolide, gamma 25 kGy. The protocol: The product is supplied in 2 separate syringes with the leuprolide acetate in one syringe and the polymer solution in the other. The two are mixed immediately prior to injection. The polymer solution contains a 50% 8515PLGA polymer solution in NMP. The molecular weight of the polymer is about 20k dalton. […] The leuprolide mesylate was prepared from leuprolide acetate by ion exchange lyophilization process and contains a small amount of acetate. The formulation was mixed and stored in a single syringe. Another formulation was made with LAMS using a PLA polymer with a molecular weight of 15k dalton (PLA-1) and a polydispersity index (PDI) of 1.8. This formulation was also mixed and stored in a single syringe. […] The release sample was taken at predefined time points and analyzed by HPLC.
The in vitro release of leuprolide was tested from these two formulations. The in vitro release test was performed in PBS at pH 7.4 at 37° C. and the release of leuprolide over time was measured by HPLC. Briefly, an aliquot of the formulation (about 100 mg) was injected into 3 mL phosphate buffer saline solution at pH 7.4 with 0.1% sodium azide at 37° C. The receiving fluid was replaced at predefined time points with fresh buffer solution, and the removed buffer solution diluted 2-fold with phosphate buffer at pH 7.4 was analyzed for drug concentration by HPLC. The amount released at each time point was calculated.
The in vitro release of leuprolide was tested from several kits of Eligard® 45 mg. These kits contain 1 syringe with leuprolide acetate (LAAc) and one syringe of polymer solution (PLGA8515 in NMP). PLGA8515 used here was prepared with hexanediol as an initiator and has a molar ratio of DL-lactide to Glycolide=85:15. The PLGA8515 polymer has one hydroxyl end group at both ends of the polymer chain. The two syringes are connected and the contents are mixed immediately prior to injection.
Formulations were made with leuprolide mesylate (LAMS(1.6)) in order to achieve the delivery of leuprolide for a period of 3 months. The leuprolide mesylate was prepared from leuprolide formate by salt exchange lyophilization process and contains a small amount of formic acid. […] The removed release media was analyzed by HPLC for leuprolide content.
The in vitro release of leuprolide was tested from these two formulations. The in vitro release test was performed in PBS at pH 7.4 at 37° C. and the release of leuprolide was measured by HPLC over time. […]
Formulations designed for a release duration of one month were made with a 50:50PLGA polymer (MW 50k, PDI 4.0) in NMP using LAMS with a methane sulfonic acid to leuprolide ratio of 1.6:1 and 2.0:1. The formulations were stored at 25° C. and the peptide purity and polymer molecular weight were measured over time. […]

The conditions of data set [2]: for molecular weight of PLGA compared with blank control: both 4° C. and RT, after 12 months.
Method: Poly(DL-lactide-co-glycolide) (PLGA) of an 85/15 ratio of lactide to glycolide (DLPLG85/15, IV: 0.28) with a lauryl ester end group was dissolved in N-methyl-2-pyrrolidone (NMP) to give a 50% solution by weight. […] The injectable compositions were filled into 1.2 mL polypropylene syringes with luer-lock tips. Then the pre-filled syringes were sealed using luer-lock caps. The capped syringes were packaged in a container and sealed in a plastic bag under vacuum and then stored at 4° C. and room temperature (˜22° C.) for up to 18 months. The injectable composition was sampled at 24 h, 1, 2, 3, 6, 12, and 18-month time points. Purity of leuprolide in the sample was determined by HPLC. Molecular weight of the polymer was determined by gel permeation chromatography (GPC) using polystyrene standards with known molecular weights.

For the compound `CCNC(=O)[C@@H]1CCCN1C(=O)[C@H](CCCNC(=N)N)NC(=O)[C@H](CC(C)C)NC(=O)[C@@H](CC(C)C)NC(=O)[C@H](Cc1ccc(O)cc1)NC(=O)[C@H](CO)NC(=O)[C@H](Cc1c[nH]c2ccccc12)NC(=O)[C@H](Cc1c[nH]cn1)NC(=O)[C@@H]1CCC(=O)N1` [leuprolide acetate, reference compound], the “release of leuprolide completed” value in data set [1] is around 240 days. The “in vitro release lasts longer versus leuprolide mesylate” value in data set [1] (Example 5, same PLA/NMP solution) is “more than 60 days”. Besides, the “molecular weight of PLGA decreased, comparing to blank control” value in data set [2] (4° C., after 6 months) is reported as “more than 10%”.
Take `CCNC(=O)[C@@H]1CCCN1C(=O)[C@H](CCCNC(=N)N)NC(=O)[C@H](CC(C)C)NC(=O)[C@@H](CC(C)C)NC(=O)[C@H](Cc1ccc(O)cc1)NC(=O)[C@H](CO)NC(=O)[C@H](Cc1c[nH]c2ccccc12)NC(=O)[C@H](Cc1c[nH]cn1)NC(=O)[C@@H]1CCC(=O)N1` [leuprolide hydrochloride]: the “molecular weight of PLGA compared with blank control” value in data set [2] is listed as “the same as that of the blank control”.
Regarding leuprolide mesylate, the “release of leuprolide completed” value in data set [1] is given as around 180 days. Moreover, the leuprolide released in data set [1] (Example 6, FIG. 4, polymer syringe from the Eligard 45 mg kit, at 112 days) is above 99. For the same compound, in data set [2], the “molecular weight of PLGA compared with blank control” value is reported as “the same as that of the blank control”.

Values taken from patent publication US12133878B2, “Pharmaceutical compositions having a selected release duration” (Foresee Pharmaceuticals Co., Ltd., priority 2017, dated 2024).
